Measurements reported in ChEMBL document CHEMBL1201862, “PubChem BioAssay data set” (2004).
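Dose response: 5 concentrations. Exposure: 48 h. Format: 96-well plates. Endpoint: linear interpolation; highest concentration if not reached. Here, GI50 denotes the concentration required for 50% inhibition of growth.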 Active and inactive are the calls of the source. No stated cut-off is given here; in the data, active = GI50 up to about 1.1 µM and inactive = higher.

How the values were obtained:
Test in all cases: NCI anticancer screen, dose series, 48 h
SR = tested on: SR
A549 = tested on: A549
TK-10 = tested on: TK-10
NCI-H522 = tested on: NCI-H522
HT-29 = tested on: HT-29
U-251 = tested on: U-251
KM12 = tested on: KM12
EKVX = tested on: EKVX
T47D = tested on: T47D
MOLT-4 = tested on: MOLT-4
MDA-MB-435 = tested on: MDA-MB-435
OVCAR-3 = tested on: OVCAR-3
SNB-19 = tested on: SNB-19
NCI-H23 = tested on: NCI-H23
MCF7 = tested on: MCF7
OVCAR-5 = tested on: OVCAR-5
MDA-N = tested on: MDA-N
BT-549 = tested on: BT-549
SK-OV-3 = tested on: SK-OV-3
RXF 393 = tested on: RXF 393

SMILES	GI50 (SR)	GI50 (A549)	GI50 (TK-10)	GI50 (NCI-H522)	GI50 (HT-29)	GI50 (U-251)	GI50 (KM12)	GI50 (EKVX)	GI50 (T47D)	GI50 (MOLT-4)	GI50 (MDA-MB-435)	GI50 (OVCAR-3)	GI50 (SNB-19)	GI50 (NCI-H23)	GI50 (MCF7)	GI50 (OVCAR-5)	GI50 (MDA-N)	GI50 (BT-549)	GI50 (SK-OV-3)	GI50 (RXF 393)
CCCCc1ccc(-n2sc3ncccc3c2=O)cc1	4.72 µM (inactive)	14 µM (inactive)	14.4 µM (inactive)	2.58 µM (inactive)	16.1 µM (inactive)	15.1 µM (inactive)	13.4 µM (inactive)	11.1 µM (inactive)	13 µM (inactive)	4.74 µM (inactive)	16.3 µM (inactive)	10.2 µM (inactive)	21.9 µM (inactive)	15.9 µM (inactive)	23.8 µM (inactive)	18.5 µM (inactive)	13.9 µM (inactive)	19.1 µM (inactive)	26.9 µM (inactive)	
Clc1ccccc1/C=C/c1nsc(/C=C/c2ccccc2Cl)n1	22.1 µM (inactive)	73.8 µM (inactive)	30.8 µM (inactive)	33.1 µM (inactive)	35.2 µM (inactive)	34.8 µM (inactive)	88.9 µM (inactive)	61 µM (inactive)	10.4 µM (inactive)	33.5 µM (inactive)	42.6 µM (inactive)	40.1 µM (inactive)	> 100 µM (inactive)		32 µM (inactive)	> 100 µM (inactive)	35 µM (inactive)	92 µM (inactive)	70.1 µM (inactive)	> 100 µM (inactive)
C=C[C@H]1CN2CCc3c([nH]c4cc(O)ccc34)[C@@H]2C[C@@H]1C[C@H]1c2[nH]c3ccccc3c2CCN1C	2.67 µM (inactive)	5.53 µM (inactive)	8.57 µM (inactive)	2.99 µM (inactive)	2.48 µM (inactive)	1.77 µM (inactive)	3.66 µM (inactive)	7.62 µM (inactive)	15.6 µM (inactive)	3.57 µM (inactive)	2.01 µM (inactive)	4.39 µM (inactive)	6.67 µM (inactive)	16 µM (inactive)	2.31 µM (inactive)	17 µM (inactive)	1.78 µM (inactive)	13.8 µM (inactive)	13.8 µM (inactive)	
O=S(=O)(O)c1cc(Cl)c(O)c2ncc(Cl)cc12	32.2 µM (inactive)	77.1 µM (inactive)			38.5 µM (inactive)	> 100 µM (inactive)	> 100 µM (inactive)	69 µM (inactive)	> 100 µM (inactive)	15.7 µM (inactive)	> 100 µM (inactive)	69.2 µM (inactive)	84.7 µM (inactive)	72.4 µM (inactive)	51.8 µM (inactive)	> 100 µM (inactive)	> 100 µM (inactive)	79.4 µM (inactive)		> 100 µM (inactive)
CC(C)(C)C1(O)C=C(O)C(=O)N1NC(=O)c1ccccc1Nc1ccccc1 (configuration not stated)		> 100 µM (inactive)	46.3 µM (inactive)	16.6 µM (inactive)	41.1 µM (inactive)	18.2 µM (inactive)	40.9 µM (inactive)	53.6 µM (inactive)	36.1 µM (inactive)	2.4 µM (inactive)	40.6 µM (inactive)	6.84 µM (inactive)	54.8 µM (inactive)	41 µM (inactive)	33.3 µM (inactive)	84.5 µM (inactive)	62.2 µM (inactive)	28 µM (inactive)	25.4 µM (inactive)	60.5 µM (inactive)
CN(/N=C(\C(=O)O)c1ccccc1)C1=NCCCN1	> 100 µM (inactive)	> 100 µM (inactive)	> 100 µM (inactive)	> 100 µM (inactive)	> 100 µM (inactive)	> 100 µM (inactive)	> 100 µM (inactive)	73.3 µM (inactive)	> 100 µM (inactive)	> 100 µM (inactive)	> 100 µM (inactive)	> 100 µM (inactive)		> 100 µM (inactive)	> 100 µM (inactive)	> 100 µM (inactive)	> 100 µM (inactive)	> 100 µM (inactive)	> 100 µM (inactive)	> 100 µM (inactive)
NS(=O)(=O)c1nnc(NC(=O)c2cccc([N+](=O)[O-])c2)s1	> 100 µM (inactive)	> 100 µM (inactive)	> 100 µM (inactive)	> 100 µM (inactive)		> 100 µM (inactive)	> 100 µM (inactive)	> 100 µM (inactive)	> 100 µM (inactive)	> 100 µM (inactive)	> 100 µM (inactive)	> 100 µM (inactive)	> 100 µM (inactive)	> 100 µM (inactive)	> 100 µM (inactive)	> 100 µM (inactive)	> 100 µM (inactive)	> 100 µM (inactive)	> 100 µM (inactive)	> 100 µM (inactive)
Cc1nnc2n1-c1ccccc1N(Cc1ccccc1)CC2	30.4 µM (inactive)	75.7 µM (inactive)	82.6 µM (inactive)		40.1 µM (inactive)	50 µM (inactive)	81.1 µM (inactive)	34.2 µM (inactive)	41.2 µM (inactive)	23.8 µM (inactive)	51.4 µM (inactive)	39.6 µM (inactive)	> 100 µM (inactive)	60 µM (inactive)	37.4 µM (inactive)	> 100 µM (inactive)	46.2 µM (inactive)	22.1 µM (inactive)	> 100 µM (inactive)	34.8 µM (inactive)
Nc1ncnc2oc(-c3cccs3)nc12	> 100 µM (inactive)	> 100 µM (inactive)	> 100 µM (inactive)	> 100 µM (inactive)	83.4 µM (inactive)	> 100 µM (inactive)	> 100 µM (inactive)	37.5 µM (inactive)	> 100 µM (inactive)		> 100 µM (inactive)	> 100 µM (inactive)	> 100 µM (inactive)	> 100 µM (inactive)	> 100 µM (inactive)	> 100 µM (inactive)	> 100 µM (inactive)	> 100 µM (inactive)		> 100 µM (inactive)
CC(C)(C)c1cc(C2NCCO2)cc(C(C)(C)C)c1O (configuration not stated)	> 100 µM (inactive)		37.1 µM (inactive)	> 100 µM (inactive)	> 100 µM (inactive)	37.1 µM (inactive)	> 100 µM (inactive)	77.3 µM (inactive)	0.0538 µM (active)	> 100 µM (inactive)	> 100 µM (inactive)	> 100 µM (inactive)		51.4 µM (inactive)	76.7 µM (inactive)	> 100 µM (inactive)	> 100 µM (inactive)	> 100 µM (inactive)	32.1 µM (inactive)	14.7 µM (inactive)
N#Cc1c(-c2ccc(Cl)cc2)c2c(n(C3OC(CO)C(O)C(O)C3O)c1=S)CCC2 (configuration not stated)	47 µM (inactive)	31.7 µM (inactive)	37.6 µM (inactive)		29 µM (inactive)	31 µM (inactive)	41.9 µM (inactive)		20.5 µM (inactive)	10.4 µM (inactive)	19.8 µM (inactive)	28 µM (inactive)	22 µM (inactive)	25.4 µM (inactive)	20.9 µM (inactive)	41.3 µM (inactive)	34.5 µM (inactive)	34.4 µM (inactive)	39.5 µM (inactive)	21.9 µM (inactive)
Cc1ncc2c(=O)c3c(oc2n1)c1ccccc1n3Cc1ccccc1	> 100 µM (inactive)	> 100 µM (inactive)	> 100 µM (inactive)	> 100 µM (inactive)	> 100 µM (inactive)	75.5 µM (inactive)	> 100 µM (inactive)	> 100 µM (inactive)	7.24 µM (inactive)	> 100 µM (inactive)	> 100 µM (inactive)	> 100 µM (inactive)	> 100 µM (inactive)	> 100 µM (inactive)	> 100 µM (inactive)	> 100 µM (inactive)	> 100 µM (inactive)	> 100 µM (inactive)		> 100 µM (inactive)
CC1OC2OC3C(OCC(O)C3O)OC(=O)[C@]34CCC(C)(C)CC3C3=CCC5[C@@]6(C)C[C@H](O)[C@H](OC7OC(CO)C(O)C(O)C7OC7OCC(OC(=O)CC(C)(O)CC(=O)OC1C(OC1OC(CO)C(O)C(O)C1O)C2O)C(O)C7O)[C@@](C)(CO)C6CC[C@@]5(C)[C@]3(C)CC4 (some centres not stated)	7 µM (inactive)	3.85 µM (inactive)	10.8 µM (inactive)	11.6 µM (inactive)	7.78 µM (inactive)	8.71 µM (inactive)	8.53 µM (inactive)		9.46 µM (inactive)	10.3 µM (inactive)	2.45 µM (inactive)	9.77 µM (inactive)	11.4 µM (inactive)	4.33 µM (inactive)	12 µM (inactive)	8.91 µM (inactive)	2.44 µM (inactive)	9.27 µM (inactive)	12.4 µM (inactive)	
CC1OC(O[C@H]2CC[C@]3(C)[C@H]4CC=C5[C@@H]6[C@@H](C)[C@H](C)CC[C@]6(C(=O)O)CC[C@@]5(C(=O)O)[C@]4(C)CC[C@H]3C2(C)C)C(O)C(O)C1O (some centres not stated)	> 75 µM (inactive)		> 75 µM (inactive)	> 75 µM (inactive)		> 75 µM (inactive)	> 75 µM (inactive)		> 75 µM (inactive)	> 75 µM (inactive)	> 75 µM (inactive)	> 75 µM (inactive)	> 75 µM (inactive)	> 75 µM (inactive)	> 75 µM (inactive)	> 75 µM (inactive)	> 75 µM (inactive)	> 75 µM (inactive)	> 75 µM (inactive)	> 75 µM (inactive)
O=C(/C=C/c1ccsc1)c1ccco1	2.28 µM (inactive)		20 µM (inactive)	1.76 µM (inactive)	9.95 µM (inactive)	7.67 µM (inactive)	4.8 µM (inactive)	16.4 µM (inactive)	11.8 µM (inactive)	4.34 µM (inactive)	20 µM (inactive)	14 µM (inactive)	15.5 µM (inactive)	14.2 µM (inactive)	2.21 µM (inactive)	17.1 µM (inactive)	12.1 µM (inactive)	18.5 µM (inactive)	18.5 µM (inactive)	13.3 µM (inactive)
